{"source": "patent US4318864A", "about": "“Process for making s-phenenyltris(sulfonylimino)tri-benzene mono- and di-sulfonic acids and salts” (American Cyanamid Company, priority 1980, dated 1982)", "key": {"[1]": {"test_system": "shunt pathway", "assay": "Test Code 036 (C-Shunt inhibitor), lysis of human erythrocytes via cobra venom factor activated shunt pathway", "assay_type": "biochemical", "parameters": "key: N = Negative", "conditions": "serial dilution assay, twofold dilutions"}, "[2]": {"test_system": "late components of human complement (C3-C9)", "assay": "Test Code 035 (C3-C9 inhibitor), lysis of EAC 142", "assay_type": "biochemical", "parameters": "key: N = Negative", "conditions": "serial dilution assay, twofold dilutions"}, "[3]": {"target": "activated human C1 (Homo sapiens, UniProt P09871)", "assay": "Test Code 026 (C1 inhibitor)", "assay_type": "biochemical", "conditions": "serial dilution assay, twofold dilutions; higher well number indicates higher activity"}, "[4]": {"test_system": "complement activity in serum", "assay": "Guinea Pig Intraperitoneal Test (GPIP)", "assay_type": "in vivo", "conditions": "Cavia porcellus, ip, 200 mg./kg. i.p."}}, "note": "Where a name gives a salt, the structure may show the parent alone. Read-outs that look alike come from different tables or passages of the source."}
{"smiles": "O=S(=O)(O)c1cc(NS(=O)(=O)c2cc(S(=O)(=O)Nc3cc(S(=O)(=O)O)cc(S(=O)(=O)O)c3)cc(S(=O)(=O)Nc3cc(S(=O)(=O)O)cc(S(=O)(=O)O)c3)c2)cc(S(=O)(=O)O)c1", "note": "[5,5',5\"-[s-Phenenyltris(sulfonylimino)]tri-m-benzenedisulfonic acid, hexasodium salt]", "values": [{"measurement": "Shunt Inhibition 036 Wells", "setting": "[1]", "value": "N"}, {"measurement": "C-Late 035 Wells", "setting": "[2]", "value": "N"}, {"measurement": "Cl 026 Wells", "setting": "[3]", "value": "+8 Wells"}, {"measurement": "inhibition at 200 mg/kg", "setting": "[4]; 0.5 h, 30 min after injection, read-out: In Vivo Activity (Guinea pig) % Inhibition Intraperitoneal, 30 min", "value": -75, "unit": "%"}, {"measurement": "inhibition at 200 mg/kg", "setting": "[4]; 1 h, 60 min after injection, read-out: In Vivo Activity (Guinea pig) % Inhibition Intraperitoneal, 60 min", "value": -75, "unit": "%"}, {"measurement": "inhibition at 200 mg/kg", "setting": "[4]; 2 h, 120 min after injection, read-out: In Vivo Activity (Guinea pig) % Inhibition Intraperitoneal, 120 min", "value": -81, "unit": "%"}]}
